21 molecules from patent US20140243374A1, “Novel Sulfonamides” (The Brigham and Women's Hospital, Inc., priority 2011, published 2014) can be followed below.

“And” between values parts separate entries of the source, which are not always exact repeats. Equal values may be shown once.

In general, IC50 refers to the midpoint of a concentration-inhibition curve. Low values mean greater potency in that assay, high ones weaker potency in that assay.

Holding throughout (assay type): cell-based
In assay [1] the target is T1, γ-secretase (cleavage of APP, Aβ42) (Homo sapiens, UniProt P49768).
T1 construct: endogenous in cells; host or cells: HEK AP-GL-T16 luciferase reporter cells (tetracycline-induced APP substrate)
Nature of the assay: Aβ (1-42) cellular assay (Aβ ELISA, HEK AP-GL-T1 6 cells). Conditions: cellular Aβ42 ELISA, 24 h compound treatment. As to the method: Aβ (1-42) Cellular Assay.
The following assay was used to determine the extent to which the compounds of interest inhibit the cleavage of APP in vivo. AβELISA is a commercial fluorometric kit from Biosource (Invitrogen 89344). Luciferase reporter HEK AP-GL-T1 6 cells were plated at 50,000 cells/well in 96 well plates in DMEM media containing 10% tetracyclin free […], 250 μg/mL zeocin, 200 μg/mL hygromycin, and 5 μg/mL blasticidin. Compounds were added 24 h after plating and APP processing is induced simultaneously by addition of tetracycline. Following a 24 h compound treatment, […] of conditioned cell media is collected, mixed with ELISA diluent buffer containing 2 mM AEBSF and 12 mM o-phenanthroline, and immediately frozen at −80° C. For the ELISA, the samples were brought to room temperature and spun at 5000 rpm for 5 min. Samples ([…]) are incubated in the ELISA plate with […] detection antibody on a shaker at room temperature for 3 h. Wells were then washed 4 times with wash buffer and 100 mL of secondary antibody are added and incubated at room temperature for 30 min. Wells were again washed 4 times with wash buffer and 100 mL of fluorescent substrate solution are added. After 30 minutes of incubation, fluorescent signals are determine on a Gemini reader at ex 460 nm and em 560 nm. The amount of Aβ levels in each sample was determined from a standard curve generated by known concentrations of Aβ peptide run simultaneously with the samples.
A general note: ELISA stands for enzyme-linked immunosorbent assay.

The target in assay [2] is T2, γ-secretase (cleavage of Notch) (Homo sapiens, UniProt P49768).
T2 construct: endogenous in cells; host or cells: U2OS luciferase reporter cells with Tet-on Notch
Nature of the assay: Notch cellular assay (luciferase reporter U2OS cells). The following applies: for IC50: U2OS luciferase reporter cells; for Notch Luc/Aβ42: ratio Notch luciferase IC50 to Aβ42 IC50. The procedure: This assay was used to determine if the compounds of interest inhibit the cleavage of Notch by γ-secretase in cells. A U2OS cell line in which the luciferase expression is adjusted by active Notch was used in this assay Notch expression is adjusted using Tet-on promoter. Luciferase reporter U2OS cells are plated at 1000 cells/well in 96 well plates in DMEM containing 100 μg/mL hygromycin, 15 μg/mL blasticidin and 1 μg/mL Tetracycline. Compounds were added 24 h after plating and the cells are lysed 6 days after adding compounds. Luciferase expression was performed using Steady-Glo Luciferase Assay System (Promega).

Assay [3] concerns the target T3, γ-secretase (Notch cleavage activity) (Homo sapiens, UniProt P49768).
T3 construct: endogenous in cells; host or cells: SUP-T1 cells
In words: Cleaved Notch1 Sandwich ELISA (SUP-T1 cell line). Conditions: for IC50: SUP-T1 cells, 16 h; for Notch Elisa/Aβ42: ratio Notch Elisa IC50 to Aβ42 IC50. The procedure: Cleaved Notch1 Sandwich ELISA.
This assay was used to determine if the compounds of interest inhibit the Notch cleavage activity of γ-secretase in SUP-T1 cell line, which endogenously expresses a truncated Notch receptor fragment that is a viable gamma-secretase substrate. The base medium for this cell line is ATCC-formulated RPMI-1640 Medium with fetal bovine serum to a final concentration of 10%. Prepare dilution of SUP-T1 cells in complete growth medium to 1.0×10^6 cells/mL, seed 1.5 mL per well of each cell dilution into a 6-well plate. Collect cells treated with serial diluted compounds in DMSO after 16 h, then using equal amount of protein isolated from samples to measure Notch intracellular cleavage by PathScan® Sandwich ELISA Kit (Cell Signaling Tech 7194S).

Turning to `COC(=O)c1ccc(CN(C2CCCCC2C)S(=O)(=O)c2ccc(Cl)cc2)cc1` (stereo not shown) [Example 2, Methyl 4-((4-chloro-N-(2-methylcyclohexyl)phenylsulfonamido)methyl)benzoate], the 50% inhibitory concentration (IC50) in assay [1] is 3.4 nM; in assay [2], 3000 nM.

The molecule `CC[C@@H](C1CCCC1)N(Cc1ccc(C(=O)OC)cc1)S(=O)(=O)c1ccc(Cl)cc1` [Example 21, (S)-Methyl 4-((4-chloro-N-(1-cyclopentylpropyl)phenylsulfonamido)methyl)benzoate] gave an IC50 in assay [1] of 24 nM. Moreover, in assay [2], the IC50 was 13000 nM and the “Notch Luc/Aβ42” value came to 542.

Take `CC1CCCCC1N(Cc1ccc(C(=O)NCCC(=O)O)cc1)S(=O)(=O)c1ccc(Cl)cc1` (stereo not shown) [Example 36, 3-(4-((4-Chloro-N-(2-methylcyclohexyl)phenylsulfonamido)methyl)benzamido)propanoic acid]: the IC50 in assay [1] was 80.7 nM; in assay [2], 4580 nM. Moreover, in assay [2], the “Notch Luc/Aβ42” value is recorded as 57.

On to `CC1CCCCC1N(Cc1ccc(C(=O)NCCN(C)C)cc1)S(=O)(=O)c1ccc(Cl)cc1` (stereo not shown) [Example 40, 4-((4-Chloro-N-(2-methylcyclohexyl)phenylsulfonamido)methyl)-N-(2-(dimethylamino)ethyl)benzamide], for which the IC50 in assay [1] turned out to be 2.56 nM; in assay [2], 3030 nM.

As for `O=C(O)c1ccc(CN(C2CCCC(C(F)(F)F)C2)S(=O)(=O)c2ccc(Cl)cc2)cc1` (stereo not shown) [Example 51, 4-((4-Chloro-N-(3-(trifluoromethyl)cyclohexyl)phenylsulfonamido)methyl)benzoic acid], half-maximal inhibition in assay [1] (IC50) was put at 62.2 nM. Also, in assay [2], the midpoint of inhibition, the IC50, lay at 3230 nM and the “Notch Luc/Aβ42” value was found to be 52.

Take `CC1CCCCC1N(Cc1ccc(C(=O)NCC(F)(F)F)cc1)S(=O)(=O)c1ccc(Cl)cc1` (stereo not shown) [Example 54, 4-((4-Chloro-N-(2-methylcyclohexyl)phenylsulfonamido)methyl)-N-(2,2,2-trifluoroethyl)benzamide]: the IC50 in assay [1] amounted to 2.61 nM; in assay [2] it was 574 nM. Also, the “Notch Luc/Aβ42” value in assay [2] was 220.

Regarding `CC1CCCCC1N(Cc1ccc(C(=O)NCCC(F)(F)F)cc1)S(=O)(=O)c1ccc(Cl)cc1` (stereo not shown) [Example 55, 4-((4-Chloro-N-(2-methylcyclohexyl)phenylsulfonamido)methyl)-N-(3,3,3 trifluoropropyl)benzamide], the values for the IC50 in assay [1] and in assay [2] were 4.3 nM and 1100 nM, respectively. The “Notch Luc/Aβ42” value in assay [2] is on record as 256.

Turning to `C[C@H](CO)NC(=O)c1ccc(CN(C2CCCCC2F)S(=O)(=O)c2ccc(Cl)cc2)cc1` (stereo partly drawn) [Example 60, 4-((4-Chloro-N-(2-fluorocyclohexyl)phenylsulfonamido)methyl)-N—((R)-1-hydroxypropan-2-yl)benzamide], the IC50 in assay [1] is 4.58 nM and 7 nM; in assay [3], 1550 nM. The “Notch Elisa/Aβ42” value in assay [3] is listed as 305.

`O=C(O)c1ccc(CN(C2CCCCC2F)S(=O)(=O)c2ccc(Cl)nc2)cc1` (stereo not shown) [Example 62, 4-((6-Chloro-N-(2-fluorocyclohexyl)pyridine-3-sulfonamido)methyl)benzoic acid]: in assay [1], the IC50 was 135 nM and 261 nM. Also, in assay [3], the IC50 was found to be 5200 nM and the “Notch Elisa/Aβ42” value is on record as 26.

In assay [1], `C[C@H](CO)NC(=O)c1ccc(CN(C2CCCC(C(F)(F)F)C2)S(=O)(=O)c2ccc(Cl)nc2)cc1` (stereo partly drawn) [Example 64, 4-((6-Chloro-N-(3-(trifluoromethyl)cyclohexyl)pyridine-3-sulfonamido)methyl)-N—((R)-1-hydroxypropan-2-yl)benzamide] returned an IC50 of 12 nM. In assay [3], the IC50 is 1070 nM and the “Notch Elisa/Aβ42” value came out at 89.

Molecule `C[C@H](CO)NC(=O)c1ccc(CN(C2CCCCC2F)S(=O)(=O)c2ccc(Cl)nc2)cc1` (stereo partly drawn) [Example 65, 4-((6-Chloro-N-(2-fluorocyclohexyl)pyridine-3-sulfonamido)methyl)-N—((R)-1-hydroxypropan-2-yl)benzamide] registered an IC50 in assay [1] of 13.7 nM. Besides, in assay [3], the IC50 is 1150 nM and the “Notch Elisa/Aβ42” value was determined as 84.

`O=C(NCCO)c1ccc(CN(C2CCCCC2F)S(=O)(=O)c2ccc(Cl)cc2)cc1` (stereo not shown) [Example 66, 4-((4-Chloro-N-(2-fluorocyclohexyl)phenylsulfonamido)methyl)-N-(2-hydroxyethyl)benzamide] gave an IC50 in assay [1] of 10.3 nM. In assay [3], the IC50 was 1380 nM and the “Notch Elisa/Aβ42” value came out at 134.

`O=C(O)c1ccc(CN(C2CCCCC2C(F)(F)F)S(=O)(=O)c2ccc(Cl)cc2)cc1` (stereo not shown) [Example 68, 4-((4-Chloro-N-(2-(trifluoromethyl)cyclohexyl)phenylsulfonamido)methyl)benzoic acid] had an IC50 in assay [1] of 25.5 nM. Also, in assay [3], the IC50 amounted to 830 nM and the “Notch Elisa/Aβ42” value stood at 33.

`C[C@@H](CO)NC(=O)c1ccc(CN(C2CCCCC2C(F)(F)F)S(=O)(=O)c2ccc(Cl)cc2)cc1` (stereo partly drawn) [Example 69, 4-((4-Chloro-N-(2-(trifluoromethyl)cyclohexyl)phenylsulfonamido)methyl)-N—((S)-1-hydroxypropan-2-yl)benzamide] came in with an IC50 in assay [1] of 2.16 nM. Further, in assay [3], the IC50 amounted to 94 nM and the “Notch Elisa/Aβ42” value is listed as 44.

Take `C[C@H](O)CNC(=O)c1ccc(CN(C2CCCCC2F)S(=O)(=O)c2ccc(Cl)cc2)cc1` (stereo partly drawn) [Example 73, 4-((4-Chloro-N-(2-fluorocyclohexyl)phenylsulfonamido)methyl)-N—((S)-2-hydroxypropyl)benzamide]: the IC50 stood at 10.4 nM in assay [1] and 1100 nM in assay [3]. The “Notch Elisa/Aβ42” value in assay [3] is listed as 106.

Consider `CN(C)CCNC(=O)c1ccc(CN(C2CCCCC2F)S(=O)(=O)c2ccc(Cl)cc2)cc1` (stereo not shown) [Example 74, 4-((4-Chloro-N-(2-fluorocyclohexyl)phenylsulfonamido)methyl)-N-(2-(dimethylamino)ethyl)benzamide], for which the IC50 in assay [1] amounted to 130 nM; in assay [3] it was 10000 nM. For the same molecule, the “Notch Elisa/Aβ42” value in assay [3] is recorded as 78.

Turning to `CN(C)CCNC(=O)c1ccc(CN(C2CCCCC2F)S(=O)(=O)c2ccc(Cl)cc2)cc1.Cl` (stereo not shown) [Example 75, 4-((4-Chloro-N-(2-fluorocyclohexyl)phenylsulfonamido)methyl)-N-(2-(dimethylamino)ethyl)benzamide hydrochloride], the IC50 in assay [1] is 32.8 nM and 70.7 nM. In assay [3], the midpoint of inhibition, the IC50, lay at 4140 nM and the “Notch Elisa/Aβ42” value is on record as 80.

Turning to `O=C(O)c1ccc(CN(C2CCCCC2(F)F)S(=O)(=O)c2ccc(Cl)cc2)cc1` (stereo not shown) [Example 76, 4-((4-Chloro-N-(2,2-difluorocyclohexyl)phenylsulfonamido)methyl)benzoic acid], the IC50 in assay [1] was determined as 89.9 nM. In assay [3], half-maximal inhibition (IC50) was put at 5060 nM and the “Notch Elisa/Aβ42” value worked out at 56.

The molecule `CC1CCCCC1N(Cc1ccc(C#N)cc1)S(=O)(=O)c1ccc(Cl)cc1` (stereo not shown) [Example 78, 4-Chloro-N-(4-cyanobenzyl)-N-(2-methylcyclohexyl)benzenesulfonamide] came in with an IC50 in assay [1] of 14 nM. Further, in assay [3], the midpoint of inhibition, the IC50, lay at 879 nM and the “Notch Elisa/Aβ42” value came to 63.

`COC(=O)c1ccc(CN([C@@H]2CCCC[C@H]2F)S(=O)(=O)c2ccc(Cl)cc2)cc1` [Example 83, Methyl 4-((4-chloro-N-((1R,2R)-2-fluorocyclohexyl)phenylsulfonamido)methyl)benzoate]: the values for the IC50 in assay [1] and in assay [3] were 44.3 nM and 1570 nM, respectively. For the same molecule, the “Notch Elisa/Aβ42” value in assay [3] is 35.

Turning to `COCC(C)NC(=O)c1ccc(CN(C2CCCCC2F)S(=O)(=O)c2ccc(Cl)cc2)cc1` (stereo not shown) [Example 85, 4-((4-Chloro-N-(2-fluorocyclohexyl)phenylsulfonamido)methyl)-N-(1-methoxypropan-2-yl)benzamide], the IC50 in assay [1] came to 13.3 nM; in assay [3] it was 1180 nM. For the same molecule, in assay [3], the “Notch Elisa/Aβ42” value is on record as 89.
